Experimental data reported in ChEMBL document CHEMBL2424656, “Analogues of the Inhoffen-Lythgoe diol with anti-proliferative activity” (Bioorg Med Chem Lett, 2013).
Calls of active or inactive are those of the source. The calls are words filed in the database; no cut-off is given here.

Key:
[1] = Growth inhibition of human U87MG cells after 72 hrs by MTS-PMS assay; assay type: functional, U-87MG ATCC; settings: U-87 MG
HT-29 [2] = experiment: Growth inhibition of human HT-29 cells after 72 hrs by MTS-PMS assay; assay type: functional; settings: HT-29, 72 h
HT-29 [3] = experiment: Ratio of GI50 for human U87MG cells to GI50 for human HT-29 cells; assay type: functional
[4] = target: T1, Vitamin D3 receptor (Mus musculus) (UniProt P48281); experiment: Activation of VDR in mouse C3H10T1/2 cells assessed as upregulation of CYP24A1 mRNA expression at 5 uM after 24 hrs by RT-PCR analysis relative to DMSO-treated control; assay type: cell-based; settings: C3H 10T1/2
T1 sequence (whole entry): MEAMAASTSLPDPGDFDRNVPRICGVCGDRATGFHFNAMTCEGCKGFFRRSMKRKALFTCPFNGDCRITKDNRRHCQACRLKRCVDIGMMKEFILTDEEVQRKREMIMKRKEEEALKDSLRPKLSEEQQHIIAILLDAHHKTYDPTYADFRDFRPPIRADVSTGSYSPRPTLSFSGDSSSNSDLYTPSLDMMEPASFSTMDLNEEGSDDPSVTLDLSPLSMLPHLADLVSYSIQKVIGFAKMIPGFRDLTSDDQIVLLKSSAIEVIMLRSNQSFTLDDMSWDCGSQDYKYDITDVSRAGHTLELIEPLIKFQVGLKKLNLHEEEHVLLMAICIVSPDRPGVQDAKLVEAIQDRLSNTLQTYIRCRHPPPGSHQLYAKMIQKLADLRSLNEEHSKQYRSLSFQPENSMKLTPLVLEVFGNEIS

[5] = […] of hedgehog signaling in mouse C3H10T1/2 cells assessed as downregulation of GLI1 mRNA expression at 5 uM after 24 hrs by RT-PCR analysis in presence of oxysterol; assay type: cell-based; settings: C3H 10T1/2
[6] = […] of hedgehog signaling in mouse C3H10T1/2 cells assessed as effect on GLI1 mRNA expression at 1 to 10 uM after 24 hrs by RT-PCR analysis in presence of oxysterol; assay type: cell-based; settings: C3H 10T1/2
[7] = Cytotoxicity against mouse C3H10T1/2 cells at 10 uM after 24 hrs; assay type: cell-based; settings: c3h 10t1/2, 24 h
[8] = target: T1, Vitamin D3 receptor (Mus musculus); experiment: Activation of VDR in mouse C3H10T1/2 cells assessed as upregulation of CYP24A1 mRNA expression at 1 to 10 uM after 24 hrs by RT-PCR analysis; assay type: cell-based; settings: C3H 10T1/2

SMILES | GI50 [1] [µM] | GI50 (HT-29 [2]) [µM] | also measured
C[C@H](COC(=O)c1ccc(Cl)cc1)[C@H]1CC[C@H]2[C@@H](O)CCC[C@]12C | 31.4 | 15.9 | RatioGI50 (HT-29 [3]): 2
C[C@H](CNC(=O)C1CCCCC1)[C@H]1CC[C@H]2[C@@H](O)CCC[C@]12C | > 100 | 84.1 | 
C=C1CC[C@H](O)C/C1=C/C=C1\CCC[C@]2(C)[C@@H]([C@H](C)CCCC(C)C)CC[C@@H]12 [CHOLECALCIFEROL] |  | 53.8 | fold change (FC) [4]: 8000; Activity [5]: Active
C[C@H](COC(=O)c1cccc(O)c1)[C@H]1CC[C@H]2[C@@H](O)CCC[C@]12C | 76.9 | 70.3 | 
C[C@H](COC(=O)c1ccncc1)[C@H]1CC[C@H]2[C@@H](O)CCC[C@]12C | > 100 | > 100 | 
CC(C)CC(=O)OC[C@@H](C)[C@H]1CC[C@H]2[C@@H](O)CCC[C@]12C | 56 | 47.5 | 
C[C@H](COC(=O)c1cccnc1)[C@H]1CC[C@H]2[C@@H](O)CCC[C@]12C | > 100 | 95.2 | 
C[C@H](COC(=O)c1ccccc1)[C@H]1CC[C@H]2[C@@H](OC(=O)c3ccccc3)CCC[C@]12C | > 100 | > 100 | 
C[C@H](COC(=O)c1ccccc1O)[C@H]1CC[C@H]2[C@@H](O)CCC[C@]12C | 18.8 | 14.1 | Activity [6]: inactive; Activity [7]: Toxic; Activity [8]: inactive
C[C@H](COC(=O)c1ccc2ccccc2c1)[C@H]1CC[C@H]2[C@@H](O)CCC[C@]12C | 51.3 | 19.8 | 
C[C@H](CNC(=O)c1ccccc1O)[C@H]1CC[C@H]2[C@@H](O)CCC[C@]12C | > 100 | 68.2 | 
C[C@H](COC(=O)C1CCC1)[C@H]1CC[C@H]2[C@@H](O)CCC[C@]12C | 27.1 | 27 | 
C[C@H](COC(=O)C1CC1)[C@H]1CC[C@H]2[C@@H](O)CCC[C@]12C | > 100 | 82.6 | 
C[C@H](COC(=O)c1ccccn1)[C@H]1CC[C@H]2[C@@H](O)CCC[C@]12C | > 100 | > 100 | 
C[C@H](COC(=O)c1cccc2ccccc12)[C@H]1CC[C@H]2[C@@H](O)CCC[C@]12C | 39.2 | 35.3 | 
C[C@H](COC(=O)c1ccc(O)cc1)[C@H]1CC[C@H]2[C@@H](O)CCC[C@]12C | 67 | 41 | 
C[C@H](COC(=O)C(C)(C)C)[C@H]1CC[C@H]2[C@@H](O)CCC[C@]12C | 17.1 | 11.9 | Activity [6]: inactive; Activity [8]: inactive
C[C@H](COC(=O)c1ccccc1Cl)[C@H]1CC[C@H]2[C@@H](O)CCC[C@]12C | 46.8 | 14.4 | 
C[C@H](COC(=O)C1CCCC1)[C@H]1CC[C@H]2[C@@H](O)CCC[C@]12C | 21.7 | 22.1 | 
C[C@H](COC(=O)c1ccco1)[C@H]1CC[C@H]2[C@@H](O)CCC[C@]12C | 79.1 | > 100 | 
C[C@H](CNC(=O)c1ccc(Cl)cc1)[C@H]1CC[C@H]2[C@@H](O)CCC[C@]12C | 42.9 | 32.3 | 
COc1cccc(C(=O)OC[C@@H](C)[C@H]2CC[C@H]3[C@@H](O)CCC[C@]23C)c1 | 15.9 | 23.7 | 
COc1ccccc1C(=O)OC[C@@H](C)[C@H]1CC[C@H]2[C@@H](O)CCC[C@]12C | 56 | 35.7 | 
C[C@H](CN)[C@H]1CC[C@H]2[C@@H](O)CCC[C@]12C | > 100 | > 100 | 
COc1ccc(C(=O)OC[C@@H](C)[C@H]2CC[C@H]3[C@@H](O)CCC[C@]23C)cc1 | 33.1 | 39.8 | 
C[C@H](COC(=O)c1cccc(Cl)c1)[C@H]1CC[C@H]2[C@@H](O)CCC[C@]12C | 69 | 26.2 | 
C[C@H](COC(=O)C1CCCCC1)[C@H]1CC[C@H]2[C@@H](O)CCC[C@]12C | 11.2 | 15.2 | Activity [6]: inactive; Activity [8]: inactive
C[C@H](COC(=O)c1ccccc1)[C@H]1CC[C@H]2[C@@H](O)CCC[C@]12C | 24.6 | 22.6 | Activity [8]: inactive
